Measured values taken from US20130252930A1 (BIOMARIN PHARMACEUTICAL INC., priority 2010, published 2013).

Legend:
[1] = biological target: T1, Human C17,20-lyase (microsomal fraction from human testis) (Homo sapiens, UniProt P05093); assay: CYP17 enzymatic assay (% inhibition at 10 nM), version 2 (Biological Example 6); assay type: biochemical; conditions: method: tested at 100 nM; human testis microsome, radiometric
T1 construct: using microsomal fraction from human testis (Celsis Cat #S00110) as the enzyme source; tissue Celsis S00110; host or cells: human testis microsomal fraction
T1 sequence (P05093 1-508): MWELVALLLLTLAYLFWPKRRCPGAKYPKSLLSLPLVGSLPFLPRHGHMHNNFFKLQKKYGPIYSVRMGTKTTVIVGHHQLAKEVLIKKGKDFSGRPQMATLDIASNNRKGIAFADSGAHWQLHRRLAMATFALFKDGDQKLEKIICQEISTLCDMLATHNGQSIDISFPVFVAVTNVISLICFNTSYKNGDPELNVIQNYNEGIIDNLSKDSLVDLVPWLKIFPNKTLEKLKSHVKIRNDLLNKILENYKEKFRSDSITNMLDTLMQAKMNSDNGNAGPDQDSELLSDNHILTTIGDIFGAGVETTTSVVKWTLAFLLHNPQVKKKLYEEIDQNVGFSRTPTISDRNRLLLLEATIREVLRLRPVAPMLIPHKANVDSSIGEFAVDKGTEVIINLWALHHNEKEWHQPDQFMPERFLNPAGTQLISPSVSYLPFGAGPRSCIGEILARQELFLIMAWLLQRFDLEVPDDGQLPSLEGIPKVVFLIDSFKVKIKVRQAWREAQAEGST
Experimental: Human C17,20-lyase enzymatic assays were conducted in 200 μL volume in Eppendorf tubes, using microsomal fraction from human testis (Celsis Cat #S00110) as the enzyme source. Total protein concentration of the microsomal fraction is estimated to be 20 mg/ml. Prior to adding the microsomal fractions, reaction mixtures containing 50 mM NaPO4 buffer (pH 7.4), 1 mM MgCl2, 0.1 mM EDTA, 0.1 mM dithiothreitol, 0.5 mM NADPH, 4 μM 17α-hydroxypregnenolone, 1 μL of [21-^3H]-17α-hydroxypregnenolone (American Radiolabeled Chemicals, ART #1663, Specific activity=50-60 Ci/mmol), and the appropriate testing compounds were incubated for 5 minutes in a 37° C. shaking water bath (150 rpm). Following the 5-minute pre-incubation, 5 μL of human testis microsome was added to each of the reaction mixtures (except for the Negative Controls, which received 5 μL of H2O). After 30-minute incubation at 37° C. in shaking water bath (150 rpm), reactions were stopped by addition of 200 μL of cold chloroform and vigorous shaking for 30 minutes. Tubes were centrifuged at 1,500×g for 15 minutes at 4° C., and the aqueous phase was transferred to fresh Eppendorf tubes. Forty microliters (40 μL) of 8.5% charcoal (Sigma Cat #C6241) suspension was added to each tube, mixed well and incubated at 4° C. for 30 minutes. Tubes were centrifuged at 1,500×g for 15 minutes at 4° C., and 100 μL upper layer from each tube was transferred into each well of a 96-well isoplate (PerkinElmer Cat #6005040). Finally, 100 μL of Optiphase supermix scintillation fluid (PerkinElmer Cat #1200430) was added to each well, mixed by pippeting up and down 3 times. Radioactivity was measured with MicroBeta Trilux Counter using tritium program.
All testing compounds were dissolved and diluted in methanol. Two microliters (2 μL) of the properly diluted test compound was added to each reaction to reach the desired concentration. In Negative control (no enzyme activity) and Activity control (100% enzyme activity), 2 μL of methanol was added. Each data point was tested in duplicate. […]
For compounds of further interest, IC50 value was generated by measuring the inhibition rate at 5 concentrations and using Prism software under “non-linear regression analysis.”

[2] = Rat liver microsome stability assay (Biological Example 8a); conditions: liver microsomes, pH 7.4
[3] = biological target: T2, CYP17 (human testicular microsome) (Homo sapiens, UniProt P05093); assay: CYP17 enzymatic assay (% inhibition at 10 nM), version 1 (Biological Example 5); assay type: biochemical; conditions: 10 nM compound, DHEA by ELISA, read-out: Biological Example No. 5: CYP17 percent inhibition at 10 nM (version 1)
T2 construct: using microsomal fraction from human testis (Celsis Cat #S00110) as the enzyme source; tissue Celsis S00110; host or cells: human testis microsomal fraction
T2 sequence (P05093 1-508): T1 sequence (P05093 1-508)

in vitro = conditions: rat, microsomes, pH 7.4
[4] = biological target: T2, CYP17 (human testicular microsome); assay: CYP17 enzymatic assay (IC50) (Biological Example 4); assay type: biochemical; conditions: human testicular microsome, DHEA by ELISA; read-out: Biological Example No. 4: CYP17 enzymatic assay IC50
[5] = Human liver microsome stability assay (Biological Example 8b); conditions: liver microsomes, pH 7.4

half-life at 1 μM [2]	IC50 [4]	half-life at 1 μM [5]	Compound	Biological Example No. 6: CYP17 percent inhibition (version 2) [1]	inhibition at 0.01 µM [3]	half-life at 1 μM (in vitro)
1 to 10 min	–	–	C[C@]12CCC3C(CCN4C(=O)CC=CC[C@]34C)C1CC=C2c1cccnc1 (stereo partly drawn) [Compound 34, (11aR,13aS)-11a,13a-dimethyl-1-(pyridin-3-yl)-3b,4,5,8,11,11a,11b,12,13,13a-decahydro-3H-azepino[2,1-a]cyclopenta[f]isoquinolin-7(3aH)-one]	F (F means the compound had a percent inhibition of greater than or equal to 38%)	–	–
–	–	–	C[C@]12CCC3C(CCN4C(=O)C=CCC[C@]34C)C1CC=C2c1cccnc1 (stereo partly drawn) [Compound 35, (11aR,13aS)-11a,13a-dimethyl-1-(pyridin-3-yl)-3b,4,5,10,11,11a,11b,12,13,13a-decahydro-3H-azepino[2,1-a]cyclopenta[f]isoquinolin-7(3aH)-one]	F (F means the compound had a percent inhibition of greater than or equal to 38%)	–	–
–	–	–	C[C@]12CCCCC1=CC[C@@H]1[C@@H]2CC[C@]2(C)C(c3cccnc3)=CC[C@@H]12 [Compound 67, 3-((10R,13S)-10,13-dimethyl-2,3,4,7,8,9,10,11,12,13,14,15-dodecahydro-1H-cyclopenta[a]phenanthren-17-yl)pyridine]	–	50 to 80%	1 to 10 min
10 to 60 min	< 0.011 µM	1 to 50 min	C[C@]12CCOC(=O)C[C@@H]1CC[C@@H]1[C@@H]2CC[C@]2(C)C(c3cccnc3)=CC[C@@H]12 [Compound 112, (1S,2S,8S,12S,16S,11R)-2,16-dimethyl-15-(3-pyridyl)-5-oxatetracyclo[9.7.0.0^2,8.0^12,16]octadec-14-en-6-one]	F (F means the compound had a percent inhibition of greater than or equal to 38%)	–	–
10 to 60 min	< 0.011 µM	1 to 50 min	C[C@]12CCC(=O)OC[C@@H]1CC[C@@H]1[C@@H]2CC[C@]2(C)C(c3cccnc3)=CC[C@@H]12 [Compound 113, (1S,12S,16S,2R,8R,11R)-2,16-dimethyl-15-(3-pyridyl)-6-oxatetracyclo[9.7.0.0^2,8.0^12,16]octadec-14-en-5-one]	F (F means the compound had a percent inhibition of greater than or equal to 38%)	–	–
–	–	–	COc1cncc(C2=CC[C@H]3[C@@H]4CC[C@H]5COC(=O)CC[C@]5(C)[C@H]4CC[C@]23C)c1 [Compound 115, (1S,12S,16S,2R,8R,11R)-15-(5-methoxy(3-pyridyl))-2,16-dimethyl-6-oxatetracyclo[9.7.0.0^2,8.0^12,16]octadec-14-en-5-one]	F (F means the compound had a percent inhibition of greater than or equal to 38%)	–	–
–	–	–	CCOc1cncc(C2=CC[C@H]3[C@@H]4CC[C@H]5COC(=O)CC[C@]5(C)[C@H]4CC[C@]23C)c1 [Compound 117, (1S,12S,16S,2R,8R,11R)-15-(5-ethoxy(3-pyridyl))-2,16-dimethyl-6-oxatetracyclo[9.7.0.0^2,8.0^12,16]octadec-14-en-5-one]	G (G means the compound had a percent inhibition of less than 38% but greater than or equal to 3%)	–	–
